pIC50: −log10 of the molar value.
How the values were obtained:
gelatinase = gelatinase (Homo sapiens, UniProt P14780); assay: In vivo MMP inhibition (enzyme in implanted dialysis tubing); design: species or system rat (Sprague-Dawley) or mouse (CD-1)
Description: A 2 cm piece of dialysis tubing (molecular weight cut-off 12-14,000, 10 mm flat width) containing matrix metalloproteinase enzyme (stromelysin, collagenase or gelatinase in 0.5 mL of buffer) is implanted either ip or sc (in the back) of a rat (Sprague-Dawley, 150-200g) or mouse (CD-1, 25-50g) under anesthesia. Drugs are administered PO, IP, SC or IV through a canula in the jugular vein. Drugs are administered in a dose volume of 0.1 to 0.25 mL/animal. Contents of the dialysis tubing is collected and enzyme activity assayed.
Enzyme reaction rates for each dialysis tube are calculated. Tubes from at least 3 different animals are used to calculate the mean± sem. Statistical significance (p<0.05) of vehicle-treated animals versus drug-treated animals is determined by analysis of variance. (Agents and Actions 21: 331, 1987)

[1] = target: T1, human recombinant fibroblast collagenase (Homo sapiens, UniProt P03956); assay: Collagenase inhibition in vitro (fluorogenic peptide substrate); assay type: biochemical
T1 construct: human recombinant fibroblast collagenase (truncated, mw 18,828, WAR, Radnor)
T1 sequence (P03956 100-269 limits assumed): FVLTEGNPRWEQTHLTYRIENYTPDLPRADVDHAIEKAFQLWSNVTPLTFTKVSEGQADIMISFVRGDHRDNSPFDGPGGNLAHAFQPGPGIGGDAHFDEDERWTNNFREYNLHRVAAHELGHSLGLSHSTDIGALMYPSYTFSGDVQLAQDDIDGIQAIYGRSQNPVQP
Description: The assay is based on the cleavage of a peptide substrate ((Dnp-Pro-Cha-Gly-Cys(Me)-His-Ala-Lys(NMa)-NH2), Peptide International, Inc.) by collagenase releasing the fluorescent NMa group which is quantitated on the fluorometer. Dnp quenches the NMa fluorescence in the intact substrate. The assay is run in HCBC assay buffer (50mM HEPES, pH 7.0, 5mM Ca^+2, 0.02% Brij, 0.5% cysteine), with human recombinant fibroblast collagenase (truncated, mw 18,828, WAR, Radnor). Substrate is dissolved in methanol and stored frozen in 1mM aliquots. Collagenase is stored frozen in buffer in 25 µM aliquots. For the assay, substrate is dissolved in HCBC buffer to a final concentration of 10 µM and collagenase to a final concentration of 5nM. Compounds are dissolved in methanol, DMSO, or HCBC. The methanol and DMSO are diluted in HCBC to <1%. Compounds are added to the 96 well plate containing enzyme and the reaction is started by the addition of substrate.
The reaction is read (excitation 340 nm, emission 444nm) for 10 minutes and the increase in fluorescence over time is plotted as a linear line. The slope of the line is calculated and represents the reaction rate.
The linearity of the reaction rate is confirmed (r^2>0.85). The mean of the control rate is calculated and compared for statistical significance (p<0.05) with drug-treated rates using Dunnett's multiple comparison test. Dose-response relationships can be generated using multiple doses of drug and IC50 values with 95% CI are estimated using linear regression (IPRED, HTB) (Bickett, D. M. et al., A High Throughput Fluorogenic Substrate For Interstitial Collagenase (MMP-1) and Gelatinase (MMP-9), Anal. Biochem. 212, 58-64 (1993)).

[2] = target: T2, human neutrophil gelatinase B (Homo sapiens, UniProt P14780); assay: Gelatinase inhibition in vitro (thiopeptide substrate, DTNB); assay type: biochemical
T2 construct: human neutrophil gelatinase B; from tissue; host or cells: human neutrophils
Description: The increase in OD405 is plotted and the slope of the line is calculated which represents the reaction rate.
The mean of the control rate is calculated and compared for statistical significance (p<0.05) with drug-treated rates using Dunnett's multiple comparison test.

MMP stromelysin = MMP stromelysin (Homo sapiens, UniProt P08254); conditions: WO 9407481; cited from earlier work
[3] = target: T3, human recombinant stromelysin (Homo sapiens, UniProt P08254); assay: Stromelysin inhibition in vitro (thiopeptide substrate, DTNB); assay type: biochemical
T3 construct: human recombinant stromelysin (truncated, Affymax); purchased Affymax
Description: The assay is based on the cleavage of the thiopeptide substrate ((Ac-Pro-Leu-Gly(2-mercapto-4-methylpentanoyl)Leu-Gly-OEt), Bachem Bioscience) by the enzyme stromelysin, releasing the substrate product which forms a colorimetric reaction with DTNB ((5,5'-dithiobis(2-nitrobenzoic acid)). The thiopeptide substrate is made up as a 20mM stock in 100% DMSO and stored frozen while the DTNB stock is dissolved in 100% DMSO and stored as a 100mM stock at room temperature. Both the substrate and DTNB are diluted to 1mM with assay buffer (50mM HEPES, pH 7.0, 5 mM CaCl2) before use. The stock of human recombinant stromelysin (truncated, Affymax) is diluted with assay buffer to a final concentration of 12.5 nM in the reaction.
The enzyme, DTNB, and substrate (10µM final concentration) with/without inhibitor (total reaction volume of 200µL) is added to a 96 well plate and then the increase in color is monitored spectrophotometrically for 5 minutes at 405 nanometers (nm) on a plate reader. The increase in OD405 is plotted and the slope of the line is calculated which represents the reaction rate.
The mean of the control rate is calculated and compared for statistical significance (p<0.05) with drug-treated rates using Dunnett's multiple comparison test. Dose-response relationships can be generated using multiple doses of drug and IC50 values with 95% Cl are estimated using linear regression (IPRED, HTB) (Weingarten and Feder, Spectrophometric Assay For Vertebrate Collagenase, Anal. Biochem 147, 437-440 (1985)).

T3 sequence (P08254 100-272 limits assumed): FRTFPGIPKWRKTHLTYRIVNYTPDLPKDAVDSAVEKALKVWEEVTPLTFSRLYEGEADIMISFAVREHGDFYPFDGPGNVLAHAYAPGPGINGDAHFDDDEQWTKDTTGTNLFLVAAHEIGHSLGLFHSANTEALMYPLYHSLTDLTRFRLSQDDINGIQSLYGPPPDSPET
gelatinase, sequence (P14780 94-707): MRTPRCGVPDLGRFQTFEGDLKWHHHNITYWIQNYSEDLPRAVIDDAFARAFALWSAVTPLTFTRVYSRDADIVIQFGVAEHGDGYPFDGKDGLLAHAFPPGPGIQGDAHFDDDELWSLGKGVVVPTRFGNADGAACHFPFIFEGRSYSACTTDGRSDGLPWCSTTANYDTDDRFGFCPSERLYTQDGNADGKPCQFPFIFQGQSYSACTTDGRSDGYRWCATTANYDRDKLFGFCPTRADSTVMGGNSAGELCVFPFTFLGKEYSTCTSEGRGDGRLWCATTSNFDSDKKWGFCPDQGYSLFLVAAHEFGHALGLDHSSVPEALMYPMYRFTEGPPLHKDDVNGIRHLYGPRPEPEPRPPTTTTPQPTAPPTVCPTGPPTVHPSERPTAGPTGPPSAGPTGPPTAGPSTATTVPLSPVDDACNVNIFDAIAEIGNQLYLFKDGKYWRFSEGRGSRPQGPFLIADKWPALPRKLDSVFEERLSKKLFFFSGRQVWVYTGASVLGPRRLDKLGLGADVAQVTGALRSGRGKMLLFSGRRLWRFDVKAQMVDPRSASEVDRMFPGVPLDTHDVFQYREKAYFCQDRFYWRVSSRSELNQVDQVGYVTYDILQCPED
T2 sequence (P14780 94-707): as above
MMP stromelysin, sequence (P08254 100-477): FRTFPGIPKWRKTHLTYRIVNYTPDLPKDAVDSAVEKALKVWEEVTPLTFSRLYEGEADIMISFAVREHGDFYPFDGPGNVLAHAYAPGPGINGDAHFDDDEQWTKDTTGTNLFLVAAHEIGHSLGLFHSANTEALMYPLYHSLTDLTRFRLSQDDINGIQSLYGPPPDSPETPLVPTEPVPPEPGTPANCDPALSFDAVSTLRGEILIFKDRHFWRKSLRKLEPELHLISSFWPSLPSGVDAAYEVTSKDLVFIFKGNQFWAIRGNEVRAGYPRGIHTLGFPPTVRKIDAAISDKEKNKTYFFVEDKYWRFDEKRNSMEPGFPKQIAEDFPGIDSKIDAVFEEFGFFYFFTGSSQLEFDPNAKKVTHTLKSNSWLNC

Q: For `CNC(=O)[C@@H](NC(=O)[C@H](CC(C)C)C[C@H](O)CS)C(C)(C)C` [Example 40, (2R,4S)-4-Hydroxy-2-isobutyl-5-mercaptopentanoic acid ((1S)-2,2-dimethyl-1-methylcarbamoylpropyl)amide], which “in vivo % gelatinase inhibition” value (gelatinase; 50mpk (milligrams/kilogram)) is on record?
A: 84.8/50mpk %

Q: And the pIC50 [1]?
A: 7.39

Q: And the pIC50 [2]?
A: 7.72

Q: With `CC(C)C[C@H](NC(=O)[C@@H](CS)CCc1ccccc1)C(=O)Nc1ccccc1` as the compound, how does the “inhibitor of the MMP stromelysin” value (MMP stromelysin) read?
A: moderate

Q: For `CCCCCCC[C@H](C[C@H](O)CS)C(=O)N[C@H](C(=O)NC)C(C)(C)C` [Example 38, (2R)-2-((2S)-2-Hydroxy-3-mercaptopropyl)nonanoic acid ((1S)-2,2-dimethyl-1-methylcarbamoylpropyl)amide], which “in vivo % gelatinase inhibition” value (gelatinase; 50mpk (milligrams/kilogram)) is on record?
A: 22.2/50mpk %

Q: What about the pIC50 [1] of the same compound?
A: 7.52

Q: With `CNC(=O)[C@@H](NC(=O)[C@H](CC(C)C)C[C@@H](O)CS)C(C)(C)C` [Example 39, (2R,4R)-4-Hydroxy-2-isobutyl-5-mercaptopentanoic acid ((1S)-2,2-dimethyl-1-methylcarbamoylpropyl)amide] as the compound, how does the “in vivo % gelatinase inhibition” value (gelatinase; 50mpk (milligrams/kilogram)) read?
A: 20.4/50 mpk %

Q: And the pIC50 [1]?
A: 6.64

Q: And the pIC50 [2]?
A: 6.97

Q: Which results are given for `CNC(=O)[C@@H](NC(=O)[C@H](CC(C)C)C[C@@H](O)CSC(c1ccccc1)(c1ccccc1)c1ccccc1)C(C)(C)C` [Example 35, (2R,4R)-4-Hydroxy-2-isobutyl-5-tritylsulfanylpentanoic acid ((1S)-2,2-dimethyl-1-methylcarbamoylpropyl)amide]?
A: in vivo % gelatinase inhibition (gelatinase; 50mpk (milligrams/kilogram)): 0.44/50mpk %; inhibition at 1 µM ([1]; @1µM): 72%; inhibition at 1 µM [3]: 38%

Q: For `CCCCCCC[C@H](CC(=O)CS)C(=O)N[C@H](C(=O)NC)C(C)(C)C` [Example 43, (2R)-2-(3-Mercapto-2-oxopropyl)nonanoic acid ((1S)-2,2-dimethyl-1-methylcarbamoylpropyl)amide], which “in vivo % gelatinase inhibition” value (gelatinase; 50mpk (milligrams/kilogram)) is on record?
A: 0.73/50mpk* %

Q: What about the pIC50 [1] of the same compound?
A: 7.52

Q: What about the pIC50 [3] of the same compound?
A: 7.55

Q: Which “in vivo % gelatinase inhibition” value (gelatinase; 60mpk (milligrams/kilogram)) does the source give for `CNC(=O)[C@@H](NC(=O)[C@@H](CC(=O)CS)CC(C)C)C(C)(C)C` [Example 44, (2R)-2-Isobutyl-5-mercapto-4-oxopentanoic acid ((1S)-2,2-dimethyl-1-methylcarbamoylpropyl)amide] here?
A: 4.8/60mpk %

Q: And the pIC50 [1]?
A: 7.42

Q: And the inhibition at 1 µM [3]?
A: 58%
